Laboratory results from patent US7626031B2, “Substituted 3-(diarylmethylene)indolin-2-ones and methods of their use” (Symphony Evolution, Inc., priority 2002, dated 2009).

What was measured:
c-Kit kinase = c-Kit kinase (Homo sapiens, UniProt P10721); assay: c-Kit AlphaScreen kinase assay; assay type: biochemical
EphA2 = EphA2 (Homo sapiens, UniProt P29317); assay: Kinase assay, EphA2 (33P-ATP incorporation or luciferase-coupled ATP consumption); assay type: biochemical
Outline: (§1)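 Radiometric format: γ-33P ATP incorporation into plate-immobilized myelin basic protein, enzyme 10 nM or 20 nM, 10 μM or 30 μM unlabeled ATP, 1 h at room temperature, 1% DMSO, scintillation counting; alternatively luciferase-measured ATP consumption with pEY substrate. ATP set near each kinase's KM; 10-point dose-response.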

EGFR = EGFR (Homo sapiens, UniProt P00533); assay: Kinase assay, EGFR (33P-ATP incorporation or luciferase-coupled ATP consumption); assay type: biochemical
Outline: as §1

ALK = ALK (Homo sapiens, UniProt Q9UM73); assay: Kinase assay, ALK (33P-ATP incorporation or luciferase-coupled ATP consumption); assay type: biochemical
Method: Kinase assays were performed by measurement of incorporation of γ-^33P ATP into immobilized myelin basic protein (MBP). […] Plates were washed 3× with 100 μl TBS. […] Compound dilutions were performed in DMSO and added to assay wells to a final DMSO concentration of 1%. Each data point was measured in duplicate, and at least two duplicate assays were performed for each individual compound determination. Enzyme was added to final concentrations of 10 nM or 20 nM, for example. A mixture of unlabeled ATP and γ-^33P ATP was added to start the reaction (2×10^6 cpm of γ-^33P ATP per well (3000 Ci/mmole) and either 10 μM or 30 μM unlabeled ATP, typically. The reactions were carried out for 1 hour at room temperature with shaking. Plates were washed 7× with TBS, followed by the addition of 50 μl/well scintillation fluid (Wallac). Plates were read using a Wallac Trilux counter. This is only one format of such assays, various other formats are possible, as known to one of ordinary skill in the art.
Tyrosine kinase activity is determined by 1) measurement of kinase-dependent ATP consumption by in the presence of a generic substrate such as, polyglutamic acid, tyrosine, 4:1 (pEY), by luciferase/luciferin-mediated chemiluminescence or; 2) incorporation of radioactive phosphate derived from ^33P-ATP into a generic substrate which has been adsorbed onto the well surface of polystyrene microtiter plates. Phosphorylated substrate products are quantified by scintillation spectrometry.
(§2) Kinase activity and compound inhibition are investigated using one or more assay formats. The ATP concentrations for each assay are selected to be close to the Michaelis-Menten constant (KM) for each individual kinase. Dose-response experiments are performed at 10 different inhibitor concentrations in a 384-well plate format. […] Exemplary kinase assays are described below. KDR Assay

Flt3 = target: T1, Flt3 (Homo sapiens, UniProt P36888); assay: Kinase assay, Flt3; assay type: biochemical
T1 sequence (P36888 27-993): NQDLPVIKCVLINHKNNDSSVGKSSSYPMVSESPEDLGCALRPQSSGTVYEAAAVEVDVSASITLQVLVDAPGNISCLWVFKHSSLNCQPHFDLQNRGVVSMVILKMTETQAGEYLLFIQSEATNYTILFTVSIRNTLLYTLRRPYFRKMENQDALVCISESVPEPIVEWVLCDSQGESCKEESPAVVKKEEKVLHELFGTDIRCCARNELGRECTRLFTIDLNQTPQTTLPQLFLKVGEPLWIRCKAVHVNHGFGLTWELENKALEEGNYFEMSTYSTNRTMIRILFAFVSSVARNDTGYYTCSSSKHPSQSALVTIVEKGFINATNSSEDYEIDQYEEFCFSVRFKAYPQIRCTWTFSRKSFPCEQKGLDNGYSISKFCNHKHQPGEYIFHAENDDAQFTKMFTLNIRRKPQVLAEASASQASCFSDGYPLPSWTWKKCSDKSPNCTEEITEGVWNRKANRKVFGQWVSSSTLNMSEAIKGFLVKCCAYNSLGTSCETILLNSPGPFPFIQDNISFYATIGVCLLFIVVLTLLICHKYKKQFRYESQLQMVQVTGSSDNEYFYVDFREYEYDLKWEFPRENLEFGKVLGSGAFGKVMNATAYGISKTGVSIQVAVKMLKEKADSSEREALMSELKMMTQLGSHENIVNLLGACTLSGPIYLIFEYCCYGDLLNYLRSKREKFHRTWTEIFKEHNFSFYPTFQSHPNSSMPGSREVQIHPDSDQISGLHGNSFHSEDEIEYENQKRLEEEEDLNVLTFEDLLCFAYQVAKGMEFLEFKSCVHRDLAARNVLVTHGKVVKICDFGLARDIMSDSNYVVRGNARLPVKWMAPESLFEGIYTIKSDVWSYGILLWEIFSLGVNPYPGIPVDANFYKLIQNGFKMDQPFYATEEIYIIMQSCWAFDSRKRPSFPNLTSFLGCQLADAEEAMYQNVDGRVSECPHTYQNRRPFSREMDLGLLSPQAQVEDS
Method: as §2

Fyn = Fyn (Homo sapiens, UniProt P06241); assay: Kinase assay, Fyn; assay type: biochemical
Method: as §2

IRK = IRK (Homo sapiens, UniProt P06213); assay: Kinase assay, IRK; assay type: biochemical
Method: as §2

[1] = target: T2, KDR (baculovirus expressed human KDR kinase domain D807-V1356) (Homo sapiens, UniProt P35968); assay: biochemical
T2 construct: human KDR kinase domain D807-V1356; host or cells: baculovirus expression system
Outline: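 Baculovirus human KDR kinase domain (D807–V1356) with ATP near its KM; 10-point dose-response, 4 h at ambient temperature. Activity taken as percent ATP remaining, detected by luciferase–luciferin chemiluminescence.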

FGFR1 = FGFR1 (Homo sapiens, UniProt P11362); assay: Kinase assay, FGFR1 (33P-ATP incorporation or luciferase-coupled ATP consumption); assay type: biochemical
Outline: as §1

PDGFR alpha = PDGFR alpha (Homo sapiens, UniProt P16234); assay: Kinase assay, PDGFR alpha (33P-ATP incorporation or luciferase-coupled ATP consumption); assay type: biochemical; conditions: read-out: PDGF-R-A IC50
Outline: as §1

Sequence of IRK (P06213 28-1382): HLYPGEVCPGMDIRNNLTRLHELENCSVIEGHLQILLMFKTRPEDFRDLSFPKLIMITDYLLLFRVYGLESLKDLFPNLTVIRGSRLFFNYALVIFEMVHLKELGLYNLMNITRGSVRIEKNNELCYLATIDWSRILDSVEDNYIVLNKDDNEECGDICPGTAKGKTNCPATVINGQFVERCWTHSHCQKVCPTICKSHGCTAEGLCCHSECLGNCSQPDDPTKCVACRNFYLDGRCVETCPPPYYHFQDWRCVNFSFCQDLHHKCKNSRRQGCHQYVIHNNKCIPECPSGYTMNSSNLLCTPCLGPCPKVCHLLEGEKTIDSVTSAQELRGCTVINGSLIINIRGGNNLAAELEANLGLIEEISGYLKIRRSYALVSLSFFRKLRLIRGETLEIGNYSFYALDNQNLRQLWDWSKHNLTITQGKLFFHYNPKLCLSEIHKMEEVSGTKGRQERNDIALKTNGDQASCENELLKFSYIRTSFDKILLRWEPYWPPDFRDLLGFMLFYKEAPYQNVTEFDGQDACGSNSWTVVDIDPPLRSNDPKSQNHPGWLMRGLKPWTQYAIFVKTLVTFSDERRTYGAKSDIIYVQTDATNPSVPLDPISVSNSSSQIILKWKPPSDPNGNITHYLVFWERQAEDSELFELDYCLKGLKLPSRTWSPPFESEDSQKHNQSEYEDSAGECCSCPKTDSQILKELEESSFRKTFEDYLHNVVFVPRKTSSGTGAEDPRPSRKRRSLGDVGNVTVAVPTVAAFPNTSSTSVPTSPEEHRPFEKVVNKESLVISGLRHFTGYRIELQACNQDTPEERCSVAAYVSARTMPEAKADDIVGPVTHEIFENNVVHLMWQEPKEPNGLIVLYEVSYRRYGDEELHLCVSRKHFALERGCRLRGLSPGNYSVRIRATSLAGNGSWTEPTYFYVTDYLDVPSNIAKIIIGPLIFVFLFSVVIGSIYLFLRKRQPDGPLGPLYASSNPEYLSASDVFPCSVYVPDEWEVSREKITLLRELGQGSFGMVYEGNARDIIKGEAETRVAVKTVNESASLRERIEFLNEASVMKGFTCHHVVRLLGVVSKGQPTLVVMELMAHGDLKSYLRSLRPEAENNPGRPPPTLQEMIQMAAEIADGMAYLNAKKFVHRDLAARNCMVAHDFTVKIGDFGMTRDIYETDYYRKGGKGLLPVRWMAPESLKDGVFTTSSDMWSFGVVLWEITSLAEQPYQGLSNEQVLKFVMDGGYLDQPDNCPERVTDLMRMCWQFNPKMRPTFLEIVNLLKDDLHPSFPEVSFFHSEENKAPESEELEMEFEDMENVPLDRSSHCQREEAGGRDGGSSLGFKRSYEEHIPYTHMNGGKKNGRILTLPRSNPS
Sequence of EGFR (P00533 25-1210, species assumed): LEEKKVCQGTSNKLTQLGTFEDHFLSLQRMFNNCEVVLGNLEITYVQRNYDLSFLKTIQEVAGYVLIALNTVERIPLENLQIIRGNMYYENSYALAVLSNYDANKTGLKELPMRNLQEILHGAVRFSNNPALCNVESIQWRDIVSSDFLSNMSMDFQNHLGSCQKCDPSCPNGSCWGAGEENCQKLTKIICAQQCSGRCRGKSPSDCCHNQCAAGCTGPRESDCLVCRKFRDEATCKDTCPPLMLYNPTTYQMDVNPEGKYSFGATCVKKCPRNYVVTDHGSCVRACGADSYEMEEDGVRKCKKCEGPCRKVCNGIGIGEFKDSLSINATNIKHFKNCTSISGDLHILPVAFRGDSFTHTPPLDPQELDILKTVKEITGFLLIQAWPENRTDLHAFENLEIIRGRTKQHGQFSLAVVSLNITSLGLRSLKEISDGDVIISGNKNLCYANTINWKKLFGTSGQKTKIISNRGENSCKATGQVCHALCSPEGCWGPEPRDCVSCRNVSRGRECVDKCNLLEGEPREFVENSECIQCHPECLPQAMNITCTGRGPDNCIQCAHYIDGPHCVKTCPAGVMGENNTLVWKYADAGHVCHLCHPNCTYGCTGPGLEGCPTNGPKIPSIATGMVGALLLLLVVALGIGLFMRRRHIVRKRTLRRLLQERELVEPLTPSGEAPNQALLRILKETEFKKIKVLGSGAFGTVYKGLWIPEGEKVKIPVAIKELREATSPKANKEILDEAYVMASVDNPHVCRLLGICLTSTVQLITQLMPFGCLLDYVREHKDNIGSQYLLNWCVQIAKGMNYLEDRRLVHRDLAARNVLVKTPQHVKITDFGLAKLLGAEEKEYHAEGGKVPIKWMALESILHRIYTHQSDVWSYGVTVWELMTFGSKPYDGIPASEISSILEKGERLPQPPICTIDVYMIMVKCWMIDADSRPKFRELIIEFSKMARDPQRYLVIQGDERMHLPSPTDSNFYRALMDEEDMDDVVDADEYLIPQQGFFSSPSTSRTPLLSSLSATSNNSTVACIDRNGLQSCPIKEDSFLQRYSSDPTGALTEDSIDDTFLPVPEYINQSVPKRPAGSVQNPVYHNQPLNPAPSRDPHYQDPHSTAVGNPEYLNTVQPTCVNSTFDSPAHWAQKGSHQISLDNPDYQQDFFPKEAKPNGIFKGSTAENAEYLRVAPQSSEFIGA
Sequence of Fyn (P06241 whole entry, species assumed): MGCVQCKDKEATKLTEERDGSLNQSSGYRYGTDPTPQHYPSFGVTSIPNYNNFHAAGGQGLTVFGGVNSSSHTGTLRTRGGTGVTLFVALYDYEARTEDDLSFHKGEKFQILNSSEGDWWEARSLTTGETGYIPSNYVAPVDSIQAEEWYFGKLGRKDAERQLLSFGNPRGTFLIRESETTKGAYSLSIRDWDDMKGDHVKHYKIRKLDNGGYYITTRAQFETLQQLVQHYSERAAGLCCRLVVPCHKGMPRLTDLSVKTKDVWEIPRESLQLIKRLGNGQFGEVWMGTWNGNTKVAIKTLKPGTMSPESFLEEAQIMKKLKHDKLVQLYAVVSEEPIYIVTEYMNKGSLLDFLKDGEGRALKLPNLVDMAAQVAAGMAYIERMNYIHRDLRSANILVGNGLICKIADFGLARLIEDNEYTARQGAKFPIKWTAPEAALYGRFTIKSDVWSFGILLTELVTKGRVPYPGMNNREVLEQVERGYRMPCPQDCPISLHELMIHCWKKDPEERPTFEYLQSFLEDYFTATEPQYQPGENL
Sequence of c-Kit kinase (P10721 26-976): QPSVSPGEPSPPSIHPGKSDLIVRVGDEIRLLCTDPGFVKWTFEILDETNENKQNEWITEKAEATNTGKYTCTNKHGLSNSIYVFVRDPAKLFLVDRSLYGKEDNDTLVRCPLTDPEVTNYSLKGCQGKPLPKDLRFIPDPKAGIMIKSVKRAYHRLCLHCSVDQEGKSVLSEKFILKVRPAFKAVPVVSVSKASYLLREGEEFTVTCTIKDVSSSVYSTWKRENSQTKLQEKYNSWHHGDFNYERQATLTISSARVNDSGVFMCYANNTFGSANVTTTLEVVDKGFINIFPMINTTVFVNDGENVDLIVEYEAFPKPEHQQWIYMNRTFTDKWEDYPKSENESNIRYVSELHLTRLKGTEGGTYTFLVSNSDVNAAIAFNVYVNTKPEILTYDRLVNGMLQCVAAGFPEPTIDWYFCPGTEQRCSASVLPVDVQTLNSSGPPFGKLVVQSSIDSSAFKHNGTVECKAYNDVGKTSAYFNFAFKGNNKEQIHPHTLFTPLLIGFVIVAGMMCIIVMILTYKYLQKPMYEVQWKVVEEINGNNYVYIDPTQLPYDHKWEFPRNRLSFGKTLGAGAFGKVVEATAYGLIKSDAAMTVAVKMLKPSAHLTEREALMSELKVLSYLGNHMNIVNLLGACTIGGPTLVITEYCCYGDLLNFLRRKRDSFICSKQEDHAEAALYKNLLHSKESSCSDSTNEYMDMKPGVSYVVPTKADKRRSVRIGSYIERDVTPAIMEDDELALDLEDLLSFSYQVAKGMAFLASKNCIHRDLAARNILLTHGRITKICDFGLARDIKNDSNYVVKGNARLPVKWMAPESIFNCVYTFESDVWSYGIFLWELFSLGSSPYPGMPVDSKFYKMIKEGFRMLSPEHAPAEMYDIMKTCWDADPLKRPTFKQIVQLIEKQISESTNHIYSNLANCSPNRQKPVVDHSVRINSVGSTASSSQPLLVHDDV
Sequence of EphA2 (P29317 24-976, species assumed): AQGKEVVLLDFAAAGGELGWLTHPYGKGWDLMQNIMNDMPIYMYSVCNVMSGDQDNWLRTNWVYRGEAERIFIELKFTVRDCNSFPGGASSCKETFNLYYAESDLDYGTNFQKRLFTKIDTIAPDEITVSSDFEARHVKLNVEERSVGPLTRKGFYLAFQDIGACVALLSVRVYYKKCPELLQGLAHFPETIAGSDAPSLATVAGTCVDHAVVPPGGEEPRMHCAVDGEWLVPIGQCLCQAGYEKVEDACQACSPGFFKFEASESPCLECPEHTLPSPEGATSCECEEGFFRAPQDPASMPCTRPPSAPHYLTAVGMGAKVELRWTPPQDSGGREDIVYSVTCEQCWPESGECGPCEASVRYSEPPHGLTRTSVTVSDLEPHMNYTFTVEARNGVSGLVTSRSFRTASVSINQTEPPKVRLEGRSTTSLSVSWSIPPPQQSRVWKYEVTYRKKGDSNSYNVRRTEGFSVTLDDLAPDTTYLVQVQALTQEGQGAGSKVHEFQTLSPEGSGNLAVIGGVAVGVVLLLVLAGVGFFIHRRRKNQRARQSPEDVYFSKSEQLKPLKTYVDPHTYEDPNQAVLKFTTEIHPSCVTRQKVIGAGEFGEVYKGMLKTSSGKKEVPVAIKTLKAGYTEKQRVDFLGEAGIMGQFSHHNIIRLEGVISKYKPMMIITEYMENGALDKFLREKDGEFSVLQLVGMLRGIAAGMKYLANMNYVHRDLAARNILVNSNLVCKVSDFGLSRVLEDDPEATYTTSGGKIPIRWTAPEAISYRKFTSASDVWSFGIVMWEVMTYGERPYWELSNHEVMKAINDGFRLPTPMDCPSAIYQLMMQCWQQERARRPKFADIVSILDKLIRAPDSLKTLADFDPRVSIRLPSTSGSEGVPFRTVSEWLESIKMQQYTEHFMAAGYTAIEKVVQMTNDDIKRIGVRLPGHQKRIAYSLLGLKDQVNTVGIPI

IC50 (c-Kit kinase) | IC50 (EphA2) | IC50 (EGFR) | IC50 (ALK) | IC50 (Flt3) | IC50 (Fyn) | IC50 (IRK) | IC50 [1] | IC50 (FGFR1) | IC50 (PDGFR alpha) | SMILES
< 50 nM | 50 to 500 nM | 50 to 500 nM | 50 to 500 nM | < 50 nM | < 50 nM | 500 to 5000 nM |  |  |  | CCN1CCC(Nc2ccc3c(c2)/C(=C(\c2cc(F)cc(F)c2)c2nc(C)c[nH]2)C(=O)N3)CC1 [Entry 74, (3Z)-3-[(3,5-difluorophenyl)(4-methyl-1H-imidazol-2-yl)methylidene]-5-[(1-ethylpiperidin-4-yl)amino]-1,3-dihydro-2H-indol-2-one]
< 50 nM | 500 to 5000 nM | 50 to 500 nM |  | < 50 nM | < 50 nM | 500 to 5000 nM | < 50 nM | < 50 nM | < 50 nM | CCN1CCC(Nc2ccc3c(c2)/C(=C(/c2nc(C)c[nH]2)c2cc(F)c(Cl)cc2Cl)C(=O)N3)CC1 [Entry 117, (3Z)-3-[(2,4-dichloro-5-fluorophenyl)(4-methyl-1H-imidazol-2-yl)methylidene]-5-[(1-ethylpiperidin-4-yl)amino]-1,3-dihydro-2H-indol-2-one]
